Patent publication US20230278972A1, “SUBSTITUTED HALOALKYL SULFONANILIDE HERBICIDES” (FMC Corporation, priority 2020, published 2023)

Tests used:
Type in all cases: in vivo
[1] = tested on: barnyardgrass (Echinochloa crus-galli); assay: Test A preemergence, barnyardgrass; conditions: Preemergence; for Plant response rating, Barnyardgrass: 0 to 100 scale (0 no effect, 100 complete control)
Outline: (§1)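 Compounds in non-phytotoxic solvent with surfactant. Soil: loam/sand. Preemergence via directed soil spray after seeding; postemergence on seedlings 2–10 cm, one- to two-leaf.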

kochia (Bassia scoparia) [2] = assay: Test A preemergence, kochia; conditions: Preemergence; for Plant response rating, Kochia: 0 to 100 scale (0 no effect, 100 complete control); for Kochia plant response rating: visual injury on 0 to 100 scale (0 no effect, 100 complete control), approximately 10 days
Outline: as §1

[3] = tested on: ragweed (common ragweed, Ambrosia artemisiifolia); assay: Test A preemergence, ragweed; conditions: Preemergence; for Plant response rating, Ragweed: 0 to 100 scale (0 no effect, 100 complete control); for Ragweed plant response rating: visual injury on 0 to 100 scale (0 no effect, 100 complete control), approximately 10 days
Outline: as §1

[4] = tested on: Ryegrass, Italian (Italian ryegrass, Lolium multiflorum); assay: Test A preemergence, Ryegrass, Italian; conditions: Preemergence; for Plant response rating, Ryegrass, Italian: 0 to 100 scale (0 no effect, 100 complete control); for Ryegrass, Italian plant response rating: visual injury on 0 to 100 scale (0 no effect, 100 complete control), approximately 10 days
Outline: as §1

[5] = tested on: Foxtail, Giant (giant foxtail, Setaria faberi); assay: Test A preemergence, Foxtail, Giant; conditions: Preemergence; for Foxtail, Giant plant response rating: visual injury on 0 to 100 scale (0 no effect, 100 complete control), approximately 10 days; for Plant response rating, Foxtail, Giant: 0 to 100 scale (0 no effect, 100 complete control)
Outline: as §1

[6] = tested on: pigweed (Amaranthus retroflexus); assay: Test A preemergence, pigweed; conditions: for Plant response rating, Pigweed: 0 to 100 scale (0 no effect, 100 complete control); for Pigweed plant response rating: visual injury on 0 to 100 scale (0 no effect, 100 complete control), approximately 10 days
Outline: (§2)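 Seeds are sown in loam mixed with sand and sprayed on the soil surface right after planting for the preemergence test. Postemergence pots are sprayed once seedlings reach 2 to 10 cm at the one- to two-leaf stage. The same surfactant-containing, non-phytotoxic solvent formulation serves both.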

[7] = tested on: barnyardgrass (Echinochloa crus-galli); assay: Test A postemergence, barnyardgrass; conditions: Postemergence, 0 to 100 scale (0 no effect, 100 complete control); for Barnyardgrass plant response rating: 500 g ai/ha, visual injury vs untreated controls after approx. 10 days
Outline: as §2

kochia (Bassia scoparia) [8] = assay: Test A postemergence, kochia; conditions: Postemergence; for Kochia plant response rating: 500 g ai/ha, visual injury vs untreated controls after approx. 10 days
Outline: as §1

[9] = tested on: ragweed (common ragweed, Ambrosia artemisiifolia); assay: Test A postemergence, ragweed; conditions: Postemergence; for Ragweed plant response rating: 500 g ai/ha, visual injury vs untreated controls after approx. 10 days
Outline: as §1

[10] = tested on: Ryegrass, Italian (Italian ryegrass, Lolium multiflorum); assay: Test A postemergence, Ryegrass, Italian; conditions: Postemergence; for Ryegrass, Italian plant response rating: 500 g ai/ha, visual injury vs untreated controls after approx. 10 days
Outline: as §1

[11] = tested on: Foxtail, Giant (giant foxtail, Setaria faberi); assay: Test A postemergence, Foxtail, Giant; conditions: Postemergence; for Foxtail, Giant plant response rating: 500 g ai/ha, visual injury vs untreated controls after approx. 10 days
Outline: as §1

[12] = tested on: pigweed (Amaranthus retroflexus); assay: Test A postemergence, pigweed; conditions: Postemergence; for Pigweed plant response rating: 500 g ai/ha, visual injury vs untreated controls after approx. 10 days
Outline: as §1

[13] = tested on: wheat (Triticum aestivum); assay: Test A postemergence, wheat; conditions: Postemergence; for Wheat plant response rating: 500 g ai/ha, visual injury vs untreated controls after approx. 10 days
Outline: as §2

corn (Zea mays) = assay: Test A postemergence, corn; conditions: Postemergence; for Corn plant response rating: 500 g ai/ha, visual injury vs untreated controls after approx. 10 days
Outline: as §1

[14] = tested on: blackgrass (Alopecurus myosuroides); assay: Test A postemergence, blackgrass; conditions: Postemergence, 0 to 100 scale (0 no effect, 100 complete control); for Blackgrass plant response rating: 500 g ai/ha, visual injury vs untreated controls after approx. 10 days
Outline: as §1

[15] = tested on: galium (catchweed bedstraw, Galium aparine); assay: Test A postemergence, galium; conditions: Postemergence; for Galium plant response rating: 500 g ai/ha, visual injury vs untreated controls after approx. 10 days
Outline: as §2

[16] = 31 g ai/ha, visual injury, approx. 10 days
[17] = 125 g ai/ha, visual injury approx. 10 days
[18] = 31 g ai/ha, visual injury on 0 to 100 scale (0 no effect, 100 complete control), approx. 10 days
[19] = 125 g ai/ha, visual injury approx. 10 days, 0 to 100 scale (0 no effect, 100 complete control)
[20] = 125 g ai/ha, visual injury, approx. 10 days
[21] = 125 g ai/ha, 0 to 100 scale (0 no effect, 100 complete control)
[22] = 0 to 100 scale (0 no effect, 100 complete control)

Cc1cc(C)c(C(=O)N2COC(C)(C)C2)cc1NS(=O)(=O)C(F)(F)F [Compound 112]
40: Plant response rating, Barnyardgrass ([7]; 31 g ai/ha) | Plant response rating, Wheat [13, 19]
90: Ragweed plant response rating ([3]; 125 g ai/ha) | Plant response rating, Ragweed [9, 19] | Plant response rating, Galium [15, 18] | Plant response rating, Galium [15, 19]
70: Plant response rating, Barnyardgrass [7, 17]
30: Barnyardgrass plant response rating ([1]; 125 g ai/ha, visual injury on 0 to 100 scale (0 no effect, 100 complete control), approximately 10 days) | Plant response rating, Ragweed [3, 16] | Ryegrass, Italian plant response rating ([4]; 125 g ai/ha) | Plant response rating, Kochia (kochia (Bassia scoparia) [8]; [19]) | Plant response rating, Blackgrass [14, 17]
50: Foxtail, Giant plant response rating ([5]; 125 g ai/ha) | Plant response rating, Pigweed [6, 16] | Plant response rating, Foxtail, Giant [11, 19] | Plant response rating, Pigweed [12, 18]
20: Plant response rating, Barnyardgrass [1, 16] | Plant response rating, Kochia (kochia (Bassia scoparia) [8]; [18]) | Plant response rating, Corn (corn (Zea mays); [19])
0: Plant response rating, Ryegrass, Italian [4, 16] | Plant response rating, Ryegrass, Italian [10, 18] | Plant response rating, Wheat [13, 18] | Plant response rating, Corn (corn (Zea mays); [18]) | Plant response rating, Blackgrass ([14]; 31 g ai/ha)
80: Plant response rating, Ragweed [9, 18]
100: Pigweed plant response rating ([6]; 125 g ai/ha)
10: Plant response rating, Kochia (kochia (Bassia scoparia) [2]; [16]) | Plant response rating, Foxtail, Giant [11, 18]
60: Kochia plant response rating (kochia (Bassia scoparia) [2]; 125 g ai/ha) | Plant response rating, Ryegrass, Italian [10, 19] | Plant response rating, Pigweed [12, 19]

Cc1cc(F)c(C(=O)N2CC(C)OC(C)C2)cc1NS(=O)(=O)C(F)(F)F (centres unmarked) [Compound 238]
60: Kochia plant response rating (kochia (Bassia scoparia) [2]; 500 g ai/ha) | Plant response rating, Ryegrass, Italian [4, 20] | Foxtail, Giant plant response rating ([5]; 500 g ai/ha) | Barnyardgrass plant response rating [7] | Plant response rating, Ragweed [9, 21] | Plant response rating, Wheat [13, 21]
20: Plant response rating, Ragweed [3, 20] | Plant response rating, Pigweed [6, 20] | Plant response rating, Kochia (kochia (Bassia scoparia) [8]; [21])
30: Plant response rating, Foxtail, Giant [5, 20] | Kochia plant response rating (kochia (Bassia scoparia) [8]; [22]) | Plant response rating, Ryegrass, Italian [10, 21] | Plant response rating, Foxtail, Giant [11, 21] | Plant response rating, Pigweed [12, 21] | Blackgrass plant response rating [14]
70: Ryegrass, Italian plant response rating [10, 22] | Foxtail, Giant plant response rating [11, 22] | Wheat plant response rating [13, 22]
80: Plant response rating, Kochia (kochia (Bassia scoparia) [2]; [20]) | Pigweed plant response rating ([6]; 500 g ai/ha) | Ragweed plant response rating [9, 22] | Pigweed plant response rating [12, 22] | Plant response rating, Galium [15, 21] | Galium plant response rating [15, 22]
90: Ragweed plant response rating ([3]; 500 g ai/ha) | Ryegrass, Italian plant response rating ([4]; 500 g ai/ha)
0: Plant response rating, Barnyardgrass [1, 20] | Plant response rating, Barnyardgrass ([1]; 500 g ai/ha) | Plant response rating, Barnyardgrass ([7]; 125 g ai/ha) | Plant response rating, Corn (corn (Zea mays); [21]) | Corn plant response rating (corn (Zea mays); [22]) | Plant response rating, Blackgrass ([14]; 125 g ai/ha)

Cc1cc(F)c(C(=O)N2CCCCC2)cc1N(S(=O)(=O)C(F)(F)F)S(=O)(=O)C(F)(F)F [Compound 212]
30: Plant response rating, Kochia (kochia (Bassia scoparia) [2]; [20]) | Plant response rating, Ragweed ([3]; 500 g ai/ha) | Plant response rating, Ryegrass, Italian [4, 20]
60: Pigweed plant response rating [12, 22]
20: Plant response rating, Foxtail, Giant [5, 20] | Plant response rating, Kochia (kochia (Bassia scoparia) [8]; [21]) | Plant response rating, Ragweed [9, 21] | Ragweed plant response rating [9, 22] | Foxtail, Giant plant response rating [11, 22] | Plant response rating, Pigweed [12, 21]
90: Plant response rating, Barnyardgrass ([1]; 500 g ai/ha) | Plant response rating, Kochia (kochia (Bassia scoparia) [2]; 500 g ai/ha) | Plant response rating, Foxtail, Giant ([5]; 500 g ai/ha) | Plant response rating, Pigweed [6, 20] | Plant response rating, Pigweed ([6]; 500 g ai/ha)
0: Plant response rating, Barnyardgrass [1, 20] | Plant response rating, Ragweed [3, 20] | Plant response rating, Barnyardgrass ([7]; 125 g ai/ha) | Barnyardgrass plant response rating [7] | Plant response rating, Ryegrass, Italian [10, 21] | Plant response rating, Foxtail, Giant [11, 21] | Plant response rating, Wheat [13, 21] | Wheat plant response rating [13, 22] | Plant response rating, Corn (corn (Zea mays); [21]) | Plant response rating, Blackgrass ([14]; 125 g ai/ha) | Blackgrass plant response rating [14]
70: Plant response rating, Ryegrass, Italian ([4]; 500 g ai/ha) | Kochia plant response rating (kochia (Bassia scoparia) [8]; [22]) | Galium plant response rating [15, 22]
50: Ryegrass, Italian plant response rating [10, 22] | Plant response rating, Galium [15, 21]
10: Corn plant response rating (corn (Zea mays); [22])
